In one series the test system is hRSV (strain A2). As to the kind of experiment: Plaque inhibition assay, hRSV. The following applies: for Plaque size relative to DMSO control: hRSV plaque assay; for IC50: human respiratory syncytial virus, read-out: IC50 (plaque number vs DMSO control). It counts as cell-based, human respiratory syncytial virus. The procedure:
Example: Plaque inhibition assay
(§1) An identical assay procedure was carried out for hRSV (strain A2) bovine RS (strain Snook) and PVM (strain 15). Virus stocks were diluted 10 fold in GMEM (Invitrogen) so that the wells containing cells received sufficient virus to generate approximately 2000, 200 and 20 plaques per well.
The overlay medium also contained the compound to be tested at appropriate concentrations. Typically the 6 concentrations of the test compounds used were: 100 μM, 31.6 μM, 10 μM, 3.16 μM, 1 μM and 0.316 μM.
Stocks of the test compounds were prepared in DMSO (Sigma) (carrier). Each stock compound was diluted 1 in 200 in overlay medium to give dilutions stated above.
(§2) Cells of a standard cell line known to support pneumovirus replication (typically HEp2 or BSC1 cells) were grown in standard 12 well plates at 37° C. in an atmosphere of 5% (v/v) CO2 until confluent. Medium was aspirated from the cells and replaced with 200 μl aliquots of virus. Aliquots were prepared by diluting virus stocks 10-fold in GMEM (Invitrogen) as described above with no FCS. A mock (no virus) was also set up to test cell viability. The virus was incubated with the cells for 1 hour at 33° C. with gentle rocking every 5-10 minutes. The inocula were removed and 2 ml of overlay medium was added. Overlay medium was either test (plus compound) or control (medium alone or medium containing DMSO). The plates were incubated at 33° C. for 4-8 days to allow plaques to develop as indicated. A volume of 1 ml of additional overlay medium (containing the test compound as appropriate) was added every 3 days. All virus dilutions were carried out with each concentration of test compound, or treated as controls, and each was carried out in triplicate.
(§3) Following incubation, cells were fixed by addition of an equal volume of 4% (v/v) glutaraldehyde (Sigma) in PBS with further incubation for a minimum of 2 hours. The fixing solution was washed off under a slow flowing stream of water and 1 ml of crystal violet (0.075% w/v: Sigma) was added and left for 20 minutes at room temperature. The crystal violet was removed and the fixed cell monolayers washed. Plates were air dried. Plaques counts were recorded from wells with >20 and <200 in number. These numbers provide the most robust statistical reliability for viable plaque counts.
This experimental approach screens the ability of compounds to block the formation of plaques.

A short description of series [1]: Solubility in cell medium. It counts as physicochemical. The following applies: for Solubility behaviour in cell medium: at 100 μM; for Solubility in cell medium: solution of ligand in DMSO (20 mM) diluted in cell media to 100 μM, scale from 'very poor' (almost insoluble) to 'very good' (freely soluble over extended periods at 4° C.).
For the next series, the system named is BSC1 cells. As to the kind of experiment: Toxicity observed in plaque assay, BSC1 cells. As to conditions: at 100 μM. It counts as cell-based. How it is done:
as §2

The next series concerns HEp2 or BSC1 cells. As to the kind of experiment: Toxicity to cells in the TCID50 screen (mock control). It counts as cell-based. As to conditions: cellular RSV TCID50 assay tables. The procedure: This method provides a rapid approach to initially screen compounds and was developed as an increased number of compounds were synthesised. […] Virus was then added over 5 different half log dilutions starting at a multiplicity of infection of 0.02 plus mock control. Three dilutions of compound plus a DMSO control were screened per plate. […] Identical plate repeats for each compound dilution were fixed in subsequent days as indicated.

The test system of another series is RSV. As to the kind of experiment: 96 well plate TCID50 (cellular RSV TCID50 assay). The format is cell-based. As to conditions: for Activity: summary of activities in cellular RSV TCID50 assay, symbols − to +++++ not defined. The procedure:
This method provides a rapid approach to initially screen compounds and was developed as an increased number of compounds were synthesised. Cells of a standard cell line known to support pneumovirus replication (typically HEp2 or BSC1 cells) were grown to 95% confluence in a 96 well plate. Virus was then added over 5 different half log dilutions starting at a multiplicity of infection of 0.02 plus mock control. Three dilutions of compound plus a DMSO control were screened per plate. […] Identical plate repeats for each compound dilution were fixed in subsequent days as indicated.
Stained plates were read at 595 nm, higher optical density (OD) readings indicate more viable cells remain.

Series [2] has as its system HEp2 cells. Put plainly: MTT toxicity assay. The format is cell-based. As to conditions: for Appearance of cell monolayers: compared with carrier controls. The procedure:
All experiments shown were carried out in HEp2 cells. Cells were grown in 96 well plates overnight as previously described in 10% FCS medium to 95% confluence level. The medium was aspirated off and replaced with 200ul media with 2% FCS +/− compounds in DMSO carrier as indicated at an identical dilution series to that used in the plaque assays. 8 wells were used per compound/carrier alone dilution. An additional 2 rows of 8 cells were grown in medium alone for reference and subsequently 8 would be used as a cell death control as described below. Cells were incubated at 33° C. as indicated. If the incubation period exceeded 4 days the medium was replaced with the appropriate amount of fresh medium plus compound.
MTT assays were commenced 4 hours before the time period expired. Here 20 uL of MTT [(3-{4,5-dimethylthiazol-2-yl}-2,5-diphenyltetrazolium bromide)] solution (7.5 mg/ml in
PBS) was added. […] The cells were placed back in the incubator at 33° C. After 4 hours, 100 μL of a stop solution (50% formamide, 20% w/v SDS) was added and pipetted to dissolve the substrate. Plates were then left overnight to allow the bubbles to disappear and the OD was recorded at 595 nm. Following subtraction of background solution colour (cell death control), the optical density was expressed as a percentage compared to the DMSO control on each appropriate plate.
(In general: Tetrazolium assays rely on reduction of a dye to a coloured formazan, in cell work by metabolically active cells.)

The next series relates to Bovine RSV. As to the kind of experiment: Plaque inhibition assay, bovine RSV. It counts as cell-based, bovine respiratory syncytial virus. As to conditions: for Plaque size: bRSV plaque assay; for IC50: bovine RSV, 6-day assay, HEp2 cells. The procedure:
as §1, §2, §3
(§4) Compounds 1, 4 and 6 were also tested against bovine RSV and pneumonia virus of mice (PVM).
The compounds were tested with a 6-day assay using HEp2 cells.

A further series concerns PVM (strain 15). Put plainly: Plaque inhibition assay, PVM. The format is cell-based, pneumonia virus of mice. The following applies: for Plaque size: PVM plaque assay; for IC50: murine pneumonia virus, PVM, HEp2 cells. How it is done:
as §1, §2, §3, §4
A full plaque assay was carried out for compound 4 using HEp2 cells, with assays of 5 days and 6 days after incubation.

Series [3] concerns HEp2 cells. As to the kind of experiment: Toxicity observed in plaque assay, HEp2 cells. It counts as cell-based. The procedure: as §2
Setting [4] is: HEp-2, 120 h, hRSV, HEp2 cells, Day 5.
Where [5] appears, read: Bovine orthopneumovirus, HEp-2, 144 h, read-out: IC50.

In brackets after ≈: the same amount, converted by molar mass. Read-outs that look alike come from different tables or passages of the source.

As usually defined, the IC50 is the concentration that gives 50% inhibition. `Cc1ccccc1NC(=O)Nc1cccc(Cl)c1` [Compound 39, 1-(3-chlorophenyl)-3-(o-tolyl)urea]: the “Plaque size relative to DMSO control” value with hRSV (strain A2) is “reduction in plaque numbers (as shown) and size”. The 50% inhibitory concentration (IC50) with hRSV (strain A2) (BSC-1, 96 h, hRSV, BSC1 cells, 4 day assay) was 16.5 µM. Also, in series [1], the “Solubility behaviour in cell medium” value was “moderately soluble” and the “Solubility in cell medium” value is given as “Moderate at 100 μM”. In addition, the “Toxicity in plaque assay” value in the series with BSC1 cells is “some toxicity”. Also, the Toxicity entry in the series on HEp2 or BSC1 cells is given as “Some toxicity at 100 μM”.
Consider `COc1ccc(NC(=O)Nc2ccccc2C)cc1OC` [Compound 45, 1-(3,4-dimethoxyphenyl)-3-(o-tolyl)urea], for which the outcome with RSV was Inactive. The “Solubility in cell medium” value in series [1] is recorded as “Good”. The Toxicity result in the series on HEp2 or BSC1 cells is listed as “Low”.
The matching figures for `Cc1ccccc1NC(=O)Nc1ccc(SC(F)(F)F)cc1` [Compound 42, 1-(o-tolyl)-3-(4-((trifluoromethyl)thio)phenyl)urea]: “Plaques reduced”, “Good” and “Very toxic at 100 μM”.
As to `Cc1ccccc1NC(=O)Nc1ccc(OC(F)(F)F)cc1` [Compound 43, 1-(o-tolyl)-3-(4-(trifluoromethoxy)phenyl)urea], in the series with RSV, the Activity entry is given as “Plaques reduced”. Also, the “Solubility in cell medium” value in series [1] is given as “Good”. Also, the Toxicity result with HEp2 or BSC1 cells is “Toxic at 100 μM”.
`Cc1ccccc1NC(=O)Nc1cccc([N+](=O)[O-])c1` [Compound 1, 3-(2-methylphenyl)-1-(3-nitrophenyl)urea]: the “Sensitivity in MTT assay” value in the series with HEp2 cells [2] (days 3 and 4, disappeared after 5 days) is “increased sensitivity”. Also, in the series with HEp2 cells [2] (over the time course), the “Concentration above which inhibition of activity is seen (MTT)” value is reported as “above 10 μM”. Further, the “Plaque size relative to DMSO control” value in the series on hRSV (strain A2) is recorded as “significantly reduce the size of plaques”. Also, the “Plaque size relative to DMSO control” value with hRSV (strain A2) (listed as compound 1) is listed as “smaller than in the DMSO control”. In the series on Bovine RSV, the Plaque size entry is listed as “significantly reduce the size of plaques” and the IC50 result is on record as “precipitated out before 50% reduction was seen”. Further, the “Activity in the TCID50 assay at higher concentration” value with RSV (at >10 μM) is recorded as “no increase in activity”. For the same compound, in series [1], the “Solubility behaviour in cell medium” value was “appearance of insolublity” and the “Solubility in cell medium” value is given as “poor”. Further, the solubility in [1] (cell medium, aqueous buffer, kinetic from dmso stock, read-out: Upper limit of soluble concentration) was 5 to 10 µM (≈ 1.36 to 2.71 µg/mL). In addition, in the series with PVM (strain 15), the Plaque size result is “significantly reduce the size of plaques”. Besides, the Toxicity entry with HEp2 or BSC1 cells was “toxic at 32 μM”.
With `Cc1ccccc1NC(=O)Nc1ccc(I)cc1` [Compound 44, 1-(4-iodophenyl)-3-(o-tolyl)urea], the result with RSV was Inactive. The “Solubility in cell medium” value in series [1] was “Moderate at 100 μM”. For the same compound, the Toxicity entry with HEp2 or BSC1 cells was “Low”.
In the case of `Cc1ccccc1NC(=O)Nc1ccc(C#N)cc1` [Compound 6, 1-(4-cyanophenyl)-3-(2-methylphenyl)urea], the “Appearance of cell monolayers” value with HEp2 cells [2] is “appeared intact”. Also, the “Plaque size relative to DMSO control” value with hRSV (strain A2) was “significantly reduce the size of plaques”. Besides, the “IC50 (plaque number vs DMSO control)” value was 50% reduction was not reached in the series on hRSV (strain A2) (hRSV, HEp2 cells, Day 6) and 50% reduction was not reached with hRSV (strain A2) (hRSV, HEp2 cells, Day 7). Moreover, the values for the IC50 in the series on hRSV (strain A2) (setting [4]) and in the series with Bovine RSV (setting [5]) were 10 µM and 15 µM, respectively. The Plaque size entry with Bovine RSV and with PVM (strain 15) was “significantly reduce the size of plaques” in each case. Moreover, the “Solubility in cell medium” value in [1] is “good”. Besides, in the series on HEp2 or BSC1 cells, the Toxicity entry was “low”.
Regarding `CSc1ccc(NC(=O)NCCCOCCOCCOCCCNC(=O)Nc2ccc(SC)cc2)cc1` [Compound 37, 1-[4-(methylsulfanyl)phenyl]-3-[3-(2-{2-[3-({[4-(methylsulfanyl)-phenyl]carbamoyl}amino)propoxy]ethoxy}ethoxy)propyl]urea], the “Appearance of cell monolayers” value with HEp2 cells [2] is recorded as “appeared intact”. Also, in the series on HEp2 cells [3] (at 100 μM), the “Toxicity in plaque assay” value was “showed toxicity”. Also, in the series with hRSV (strain A2) (setting [4]), the IC50 worked out at 17.5 µM. In series [1], the “Solubility behaviour in cell medium” value is “some signs of precipitating out of solution” and the “Solubility in cell medium” value is “good”. Further, the Toxicity result with HEp2 or BSC1 cells is on record as “toxic at 50 μM”.
Take `CSc1cccc(NC(=O)Nc2ccccc2C)c1` [Compound 4, 1-(2-methylphenyl)-3-[3-(methylsulfanyl)phenyl]urea]: in the series with HEp2 cells [2], the “Appearance of cell monolayers” value is given as “appeared intact”. For the same compound, the figures for the “Toxicity in plaque assay” value in the series on HEp2 cells [3] (at 10 μM), with HEp2 cells [3] (at 31.6 μM) and in the series with HEp2 cells [3] (at 100 μM) were “No obvious toxicity”, “to some degree” and “showed toxicity”, respectively. For the same compound, in the series with hRSV (strain A2), the “Plaque size relative to DMSO control” value was “significantly reduce the size of plaques”. In addition, the IC50 came out at 4.1 µM with hRSV (strain A2) (setting [4]); 8.5 µM with hRSV (strain A2) (HEp-2, 144 h, hRSV, HEp2 cells, Day 6); 15 µM in the series with hRSV (strain A2) (HEp-2, 168 h, hRSV, HEp2 cells, Day 7); 80 µM with Bovine RSV (setting [5]); 32 µM in the series with PVM (strain 15) (HEp-2, 120 h, day 5); 100 µM with PVM (strain 15) (HEp-2, 144 h, day 6). Moreover, the Plaque size entry in the series on Bovine RSV and in the series with PVM (strain 15) was “significantly reduce the size of plaques” in each case. Further, the “Solubility in cell medium” value in [1] is “good”. In addition, the Toxicity result in the series with HEp2 or BSC1 cells is given as “some toxicity at 100 μM”.
`Cc1ccccc1NC(=O)Nc1cccc(C#N)c1` [Compound 3, 3-(3-cyanophenyl)-1-(2-methylphenyl)urea]: the “Plaque size relative to DMSO control” value in the series with hRSV (strain A2) is reported as “much smaller”. Also, in the series on hRSV (strain A2) (hRSV, HEp2 cells, 5 days, at 31.6 μM and to some extent 10 μM), the Plaque size entry is “very small”. The IC50 with hRSV (strain A2) (setting [4]) is approximately 50 µM. Also, in series [1], the “Solubility in cell medium” value is recorded as “good”. Besides, the Toxicity result in the series with HEp2 or BSC1 cells is listed as “low”.

These data come from patent publication US9884812B2, “Use of DDX3X inhibitors for the treatment of pneumovirus infections” (priority 2014, dated 2018).
